According to PubChem BioAssay (NCI):
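All cell lines were grown in 96-well plates and treated with compound for 48 hours. Abbreviation: GI50, concentration required for 50% inhibition of growth. TGI: total growth inhibition.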

Tests used:
Assay in all cases: NCI anticancer screen, dose series, 48 h
A549 NSCLC = tested on: A549 NSCLC
EKVX NSCLC = tested on: EKVX NSCLC
A498 renal = tested on: A498 renal
SNB-19 CNS = tested on: SNB-19 CNS
OVCAR-5 ovarian = tested on: OVCAR-5 ovarian
K-562 leukemia = tested on: K-562 leukemia
SK-OV-3 ovarian = tested on: SK-OV-3 ovarian
RPMI-8226 leukemia = tested on: RPMI-8226 leukemia
MDA-MB-435 = tested on: MDA-MB-435
UO-31 renal = tested on: UO-31 renal
MDA-MB-231 breast = tested on: MDA-MB-231 breast
SK-MEL-5 melanoma = tested on: SK-MEL-5 melanoma
HL-60(TB) leukemia = tested on: HL-60(TB) leukemia
SN12C renal = tested on: SN12C renal
CCRF-CEM leukemia = tested on: CCRF-CEM leukemia
HT29 colon = tested on: HT29 colon
M14 melanoma = tested on: M14 melanoma
CAKI-1 renal = tested on: CAKI-1 renal
U251 CNS = tested on: U251 CNS
SK-MEL-28 melanoma = tested on: SK-MEL-28 melanoma
NCI-H23 lung = tested on: NCI-H23 lung
HS 578T breast = tested on: HS 578T breast
OVCAR-8 ovarian = tested on: OVCAR-8 ovarian
COLO 205 colon = tested on: COLO 205 colon
PC-3 prostate = tested on: PC-3 prostate
T-47D breast = tested on: T-47D breast
LOX IMVI melanoma = tested on: LOX IMVI melanoma
OVCAR-4 ovarian = tested on: OVCAR-4 ovarian
MOLT-4 leukemia = tested on: MOLT-4 leukemia
ACHN renal = tested on: ACHN renal
HOP-92 NSCLC = tested on: HOP-92 NSCLC
SK-MEL-2 melanoma = tested on: SK-MEL-2 melanoma
SNB-75 CNS = tested on: SNB-75 CNS
UACC-257 melanoma = tested on: UACC-257 melanoma
HCT-15 colon = tested on: HCT-15 colon
HOP-62 NSCLC = tested on: HOP-62 NSCLC
SW-620 colon = tested on: SW-620 colon
OVCAR-3 ovarian = tested on: OVCAR-3 ovarian
NCI-H522 lung = tested on: NCI-H522 lung
MALME-3M melanoma = tested on: MALME-3M melanoma
BT-549 breast = tested on: BT-549 breast
DU-145 prostate = tested on: DU-145 prostate
SF-295 CNS = tested on: SF-295 CNS
NCI-H226 lung = tested on: NCI-H226 lung
UACC-62 melanoma = tested on: UACC-62 melanoma
HCT-116 colon = tested on: HCT-116 colon
MCF7 breast = tested on: MCF7 breast
IGROV1 ovarian = tested on: IGROV1 ovarian
TK-10 renal = tested on: TK-10 renal
HCC-2998 colon = tested on: HCC-2998 colon
786-0 renal = tested on: 786-0 renal
SR leukemia = tested on: SR leukemia
RXF 393 renal = tested on: RXF 393 renal
SF-539 CNS = tested on: SF-539 CNS
SF-268 CNS = tested on: SF-268 CNS
NCI-H460 lung = tested on: NCI-H460 lung
NCI/ADR-RES ovarian = tested on: NCI/ADR-RES ovarian
KM12 colon = tested on: KM12 colon

`N#CC1C(=O)NC(c2ccccc2[N+](=O)[O-])c2sc3c(F)cccc3c21` (stereo unspecified) was tested, and the GI50 (A549 NSCLC) was 1.72 µM, the TGI (A549 NSCLC) was 36.1 µM and the GI50 (EKVX NSCLC) was 3.41 µM. It also gave a TGI (EKVX NSCLC) of 41.8 µM, a GI50 (A498 renal) of 0.561 µM and a TGI (A498 renal) of 2.06 µM. For the same compound, the GI50 (SNB-19 CNS) was 22.1 µM, the TGI (SNB-19 CNS) was > 100 µM and the GI50 (OVCAR-5 ovarian) was 0.583 µM. The TGI (OVCAR-5 ovarian) was 4.45 µM, the GI50 (K-562 leukemia) was 2.39 µM and the TGI (K-562 leukemia) was 58.8 µM. For the same compound, the GI50 (SK-OV-3 ovarian) was 10.1 µM, the TGI (SK-OV-3 ovarian) was 62.3 µM and the GI50 (RPMI-8226 leukemia) was 5.67 µM. For the same compound, the TGI (RPMI-8226 leukemia) was > 60.3 µM, the GI50 (MDA-MB-435) was 23.2 µM and the TGI (MDA-MB-435) was > 83.9 µM. It also gave a GI50 (UO-31 renal) of 5.44 µM, a TGI (UO-31 renal) of 36.1 µM and a GI50 (MDA-MB-231 breast) of 8.53 µM. The TGI (MDA-MB-231 breast) was 54.8 µM, the GI50 (SK-MEL-5 melanoma) was 14.3 µM and the TGI (SK-MEL-5 melanoma) was 33.8 µM. For the same compound, the GI50 (HL-60(TB) leukemia) was 14.2 µM, the TGI (HL-60(TB) leukemia) was 54.3 µM and the GI50 (SN12C renal) was 16.4 µM. The TGI (SN12C renal) was > 96.3 µM, the GI50 (CCRF-CEM leukemia) was 21.6 µM and the TGI (CCRF-CEM leukemia) was > 87.4 µM. The GI50 (HT29 colon) was 11.5 µM, the TGI (HT29 colon) was > 93.9 µM and the GI50 (M14 melanoma) was 16.3 µM. The TGI (M14 melanoma) was 47.5 µM, the GI50 (CAKI-1 renal) was 0.242 µM and the TGI (CAKI-1 renal) was 5.43 µM. The GI50 (U251 CNS) was 1.16 µM, the TGI (U251 CNS) was 62.6 µM and the GI50 (SK-MEL-28 melanoma) was 29.5 µM. The TGI (SK-MEL-28 melanoma) was > 100 µM, the GI50 (NCI-H23 lung) was 8.78 µM and the TGI (NCI-H23 lung) was 45 µM. The GI50 (HS 578T breast) was 15.2 µM, the TGI (HS 578T breast) was 69.9 µM and the GI50 (OVCAR-8 ovarian) was 9.59 µM. For the same compound, the TGI (OVCAR-8 ovarian) was 80.9 µM, the GI50 (COLO 205 colon) was 8.05 µM and the TGI (COLO 205 colon) was 58.4 µM. For the same compound, the GI50 (PC-3 prostate) was 12.4 µM, the TGI (PC-3 prostate) was 73 µM and the GI50 (T-47D breast) was 0.241 µM. For the same compound, the TGI (T-47D breast) was 20.7 µM, the GI50 (LOX IMVI melanoma) was 15.9 µM and the TGI (LOX IMVI melanoma) was 37.8 µM. It also gave a GI50 (OVCAR-4 ovarian) of 1.5 µM, a TGI (OVCAR-4 ovarian) of 44.7 µM and a GI50 (MOLT-4 leukemia) of 15.4 µM. For the same compound, the TGI (MOLT-4 leukemia) was > 73 µM, the GI50 (ACHN renal) was 15.7 µM and the TGI (ACHN renal) was > 100 µM. The GI50 (HOP-92 NSCLC) was 11.3 µM, the TGI (HOP-92 NSCLC) was 47.3 µM and the GI50 (SK-MEL-2 melanoma) was 9.03 µM. The TGI (SK-MEL-2 melanoma) was 49.8 µM, the GI50 (SNB-75 CNS) was 1.62 µM and the TGI (SNB-75 CNS) was 94.9 µM. The GI50 (UACC-257 melanoma) was 0.961 µM, the TGI (UACC-257 melanoma) was 4.72 µM and the GI50 (HCT-15 colon) was 10.4 µM. The TGI (HCT-15 colon) was 61.2 µM, the GI50 (HOP-62 NSCLC) was 2.12 µM and the TGI (HOP-62 NSCLC) was 28.9 µM. For the same compound, the GI50 (SW-620 colon) was 0.366 µM, the TGI (SW-620 colon) was > 100 µM and the GI50 (OVCAR-3 ovarian) was 0.318 µM. For the same compound, the TGI (OVCAR-3 ovarian) was 12.7 µM, the GI50 (NCI-H522 lung) was 14.1 µM and the TGI (NCI-H522 lung) was 48 µM. The GI50 (MALME-3M melanoma) was 19.5 µM, the TGI (MALME-3M melanoma) was 63.7 µM and the GI50 (BT-549 breast) was 14.9 µM. The TGI (BT-549 breast) was 61.5 µM, the GI50 (DU-145 prostate) was 8.16 µM and the TGI (DU-145 prostate) was 46.1 µM. For the same compound, the GI50 (SF-295 CNS) was 1.11 µM, the TGI (SF-295 CNS) was 30.3 µM and the GI50 (NCI-H226 lung) was 0.273 µM. The TGI (NCI-H226 lung) was 2.55 µM, the GI50 (UACC-62 melanoma) was 0.341 µM and the TGI (UACC-62 melanoma) was 4.27 µM. For the same compound, the GI50 (HCT-116 colon) was 0.138 µM, the TGI (HCT-116 colon) was 11.9 µM and the GI50 (MCF7 breast) was 0.216 µM. For the same compound, the TGI (MCF7 breast) was 37 µM, the GI50 (IGROV1 ovarian) was 0.0549 µM and the TGI (IGROV1 ovarian) was 5.11 µM. The GI50 (TK-10 renal) was 11.5 µM, the TGI (TK-10 renal) was 60.6 µM and the GI50 (HCC-2998 colon) was 10.1 µM. The TGI (HCC-2998 colon) was 32.7 µM, the GI50 (786-0 renal) was 33 µM and the TGI (786-0 renal) was > 100 µM. The GI50 (SR leukemia) was 7.86 µM, the TGI (SR leukemia) was > 65.4 µM and the GI50 (RXF 393 renal) was 13.4 µM. It also gave a TGI (RXF 393 renal) of 56.9 µM, a GI50 (SF-539 CNS) of 22 µM and a TGI (SF-539 CNS) of 72.8 µM. For the same compound, the GI50 (SF-268 CNS) was 15.8 µM, the TGI (SF-268 CNS) was 56.9 µM and the GI50 (NCI-H460 lung) was 0.28 µM. It also gave a TGI (NCI-H460 lung) of 4.58 µM, a GI50 (NCI/ADR-RES ovarian) of 8.06 µM and a TGI (NCI/ADR-RES ovarian) of 39.8 µM. The GI50 (KM12 colon) was 20 µM and the TGI (KM12 colon) was 51.4 µM.
